Assay results published in patent publication US20040077878A1, “Process for the preparation of tri-nitrogen containing heteroaryl-diamine derivatives useful as pharmaceutical agents and methods of producing pharmaceutical agents” (priority 2002, published 2004).

Biological target: IMPDH II enzyme (Homo sapiens, UniProt P12268)
Experiment: assay against the IMPDH II enzyme
Type: biochemical
Text: The present invention enables an efficient and effective production of 1,2,4-triazole-3,5-diamine and/or 1,3,5-triazine-2,4-diamine derivatives, which are useful as pharmaceutical agents and/or as components of pharmaceutical agents, particularly inhibitors of IMPDH, anti-hypertensive agents, and neurokinin receptor antagonists, from readily-available starting compounds. This process provides a convenient synthesis of the target compound from a substituted isothiocyanate, hydrogencyanamide salt, a substituted hydrazine and/or a substituted amidine in moderate to good yield. […] Additionally, tri-nitrogen containing heteroaryl-diamine derivatives of formula (I), 1,2,4-triazole-3,5-diamines of formula (A) and/or (B) and 1,3,5-triazine-2,4-diamines of formula (C) may be readily coupled to a pharmacological core component to provide pharmaceutically active agents, such as, for examples, the compounds described in WO 00/25780, Dunstan et al., Tetrahedron Lett., Vol. 39, (1998), at pp. 7983-7986, U.S. Pat. No. 6,436,928, U.S. patent application No. 20020038030, U.S. Pat. No. 6,172,077 B1, U.S. Pat. No. 5,232,938, U.S. Pat. No. 4,569,933, WO 01/74806A1, WO 01/56987 A1, and EP 1107962 A1, incorporated herein by reference.

IC50: 150 nM
SMILES: COc1cc(Nc2nc(N)n(-c3ccccc3)n2)ccc1-c1cnco1 [Example 13]
